# Target: human TPH1 (Homo sapiens (Human), UniProt P17752)
# Assay: Biochemical in vitro assay using fluorescence readout (TPH1 inhibition)
# Conditions: human TPH1, fluorescence readout
# Sequence of human TPH1 (P17752 whole entry): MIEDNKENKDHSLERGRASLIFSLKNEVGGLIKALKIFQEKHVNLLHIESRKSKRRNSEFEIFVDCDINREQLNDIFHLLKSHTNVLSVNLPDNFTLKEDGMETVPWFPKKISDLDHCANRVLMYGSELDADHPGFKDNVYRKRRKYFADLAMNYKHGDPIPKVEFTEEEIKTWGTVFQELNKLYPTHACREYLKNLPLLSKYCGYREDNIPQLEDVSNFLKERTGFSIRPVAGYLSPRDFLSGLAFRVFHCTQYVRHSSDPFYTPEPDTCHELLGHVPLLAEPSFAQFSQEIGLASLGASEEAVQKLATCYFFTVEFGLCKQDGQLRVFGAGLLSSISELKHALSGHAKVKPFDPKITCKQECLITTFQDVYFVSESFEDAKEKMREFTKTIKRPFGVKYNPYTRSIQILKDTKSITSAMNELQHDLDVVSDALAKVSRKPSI
row,Structure (SMILES),IC50 [nM]
1,"COC(=O)c1cnc(C2c3c(nc4sc(C)nn34)CCN2C(=O)COc2ccc(N3CCOCC3)nc2Cl)s1 (stereo not drawn) [Example 1.28.1, Methyl 2-(6-(2-((2-chloro-6-morpholinopyridin-3-yl)oxy)acetyl)-2-methyl-5,6,7,8-tetrahydro-[1,3,4]thiadiazolo [2′,3′:2,3]imidazo[4,5-c]pyridin-5-yl)thiazole-5-carboxylate]",7
2,"COC(=O)c1cnc(C2c3c(nc4sc(C)nn34)CCN2C(=O)COc2ccc(C(F)(F)F)cc2Cl)s1 (stereo not drawn) [Example 1.28.2, Methyl 2-(6-(2-(2-chloro-4-(trifluoromethyl)phenoxy)acetyl)-2-methyl-5,6,7,8-tetrahydro-[1,3,4]thiadiazolo [2′,3′:2,3]imidazo[4,5-c]pyridin-5-yl)thiazole-5-carboxylate]",40
3,"COC(=O)c1cnc(C2c3c(nc4sc(C)nn34)CCN2C(=O)COc2ccc(NS(=O)(=O)C3CC3)nc2Cl)s1 (stereo not drawn) [Example 1.28.3, Methyl 2-(6-(2-((2-chloro-6-(cyclopropanesulfonamido)pyridin-3-yl)oxy)acetyl)-2-methyl-5,6,7,8-tetrahydro-[1,3,4]thiadiazolo[2′,3′:2,3]imidazo[4,5-c]pyridin-5-yl)thiazole-5-carboxylate]",45
4,"COC(=O)c1cnc(C2c3c(nc4sc(C)nn34)CCN2C(=O)COc2ccc(N3CC(F)(F)C3)nc2Cl)s1 (stereo not drawn) [Example 1.28.4, Methyl 2-(6-(2-((2-chloro-6-(3,3-difluoroazetidin-1-yl)pyridin-3-yl)oxy)acetyl)-2-methyl-5,6,7,8-tetrahydro-[1,3,4]thiadiazolo[2′,3′:2,3]imidazo[4,5-c]pyridin-5-yl)thiazole-5-carboxylate]",17
5,"CCOC(=O)c1coc(C2c3c(nc4sc(C)nn34)CCN2C(=O)COc2ccc(N3CCOCC3)nc2Cl)n1 (stereo not drawn) [Example 1.29.1, Ethyl 2-(6-(2-((2-chloro-6-morpholinopyridin-3-yl)oxy)acetyl)-2-methyl-5,6,7,8-tetrahydro-[1,3,4]thiadiazolo [2′,3′:2,3]imidazo[4,5-c]pyridin-5-yl)oxazole-4-carboxylate]",20
6,"CCOC(=O)c1ncc(C2c3c(nc4sc(C)nn34)CCN2C(=O)COc2ccc(N3CCOCC3)nc2Cl)s1 (stereo not drawn) [Example 1.30.1, Ethyl 5-(6-(2-((2-chloro-6-morpholinopyridin-3-yl)oxy)acetyl)-2-methyl-5,6,7,8-tetrahydro-[1,3,4]thiadiazolo [2′,3′:2,3]imidazo[4,5-c]pyridin-5-yl)thiazole-2-carboxylate]",9
7,"CCOC(=O)c1ncc(C2c3c(nc4sc(C)nn34)CCN2C(=O)COc2ccc(C(F)(F)F)cc2Cl)s1 (stereo not drawn) [Example 1.30.2, Ethyl 5-(6-(2-(2-chloro-4-(trifluoromethyl)phenoxy)acetyl)-2-methyl-5,6,7,8-tetrahydro-[1,3,4]thiadiazolo [2′,3′:2,3]imidazo[4,5-c]pyridin-5-yl)thiazole-2-carboxylate]",442
8,"CCOC(=O)c1ncc(C2c3c(nc4sc(C)nn34)CCN2C(=O)COc2ccc(C#N)cc2Cl)s1 (stereo not drawn) [Example 1.30.3, Ethyl 5-(6-(2-(2-chloro-4-cyanophenoxy)acetyl)-2-methyl-5,6,7,8-tetrahydro-[1,3,4]thiadiazolo[2′,3′:2,3]imidazo[4,5-c]pyridin-5-yl)thiazole-2-carboxylate]",371
9,"Cc1cnc(C2c3c(nc4sc(C)nn34)CCN2C(=O)COc2ccc(C(F)(F)F)cc2Cl)c(F)c1 (stereo not drawn) [Example 1.31.1, 2-(2-chloro-4-(trifluoromethyl)phenoxy)-1-(5-(3-fluoro-5-methylpyridin-2-yl)-2-methyl-7,8-dihydro-[1,3,4]thiadiazolo [2′,3′:2,3]imidazo[4,5-c]pyridin-6(5H)-yl)ethanone]",14
10,"Cc1cnc(C2c3c(nc4sc(C)nn34)CCN2C(=O)COc2ccc(N3CCOCC3)nc2Cl)c(F)c1 (stereo not drawn) [Example 1.31.2, 2-((2-chloro-6-morpholinopyridin-3-yl)oxy)-1-(5-(3-fluoro-5-methylpyridin-2-yl)-2-methyl-7,8-dihydro-[1,3,4]thiadiazolo [2′,3′:2,3]imidazo[4,5-c]pyridin-6(5H)-yl)ethanone]",5
11,"Cc1cnc(C2c3c(nc4sc(C)nn34)CCN2C(=O)COc2ccc(C#N)nc2Cl)c(F)c1 (stereo not drawn) [Example 1.31.3, 6-chloro-5-(2-(5-(3-fluoro-5-methylpyridin-2-yl)-2-methyl-7,8-dihydro-[1,3,4]thiadiazolo[2′,3′:2,3]imidazo[4,5-c]pyridin-6(5H)-yl)-2-oxoethoxy)picolinonitrile]",36
12,"Cc1cnc(C2c3c(nc4sc(C)nn34)CCN2C(=O)COc2ccc(C#N)cc2Cl)c(F)c1 (stereo not drawn) [Example 1.31.4, 3-chloro-4-(2-(5-(3-fluoro-5-methylpyridin-2-yl)-2-methyl-7,8-dihydro-[1,3,4]thiadiazolo[2′,3′:2,3]imidazo[4,5-c]pyridin-6(5H)-yl)-2-oxoethoxy)benzonitrile]",49
13,"Cc1cnc(C2c3c(nc4sc(C)nn34)CCN2C(=O)COc2ccc(C(F)(F)F)nc2Cl)c(F)c1 (stereo not drawn) [Example 1.31.5, 2-((2-chloro-6-(trifluoromethyl)pyridin-3-yl)oxy)-1-(5-(3-fluoro-5-methylpyridin-2-yl)-2-methyl-7,8-dihydro-[1,3,4]thiadiazolo[2′,3′:2,3]imidazo[4,5-c]pyridin-6(5H)-yl)ethanone]",21
14,"CNC(=O)c1ccc(OCC(=O)N2CCc3nc4sc(C)nn4c3C2c2ncc(C)cc2F)c(Cl)n1 (stereo not drawn) [Example 1.31.6, 6-chloro-5-(2-(5-(3-fluoro-5-methylpyridin-2-yl)-2-methyl-7,8-dihydro-[1,3,4]thiadiazolo[2′,3′:2,3]imidazo[4,5-c]pyridin-6(5H)-yl)-2-oxoethoxy)-N-methylpicolinamide]",7
15,"Cc1cnc(C2c3c(nc4sc(C)nn34)CCN2C(=O)COc2ccc(C(=O)N(C)C)nc2Cl)c(F)c1 (stereo not drawn) [Example 1.31.7, 6-chloro-5-(2-(5-(3-fluoro-5-methylpyridin-2-yl)-2-methyl-7,8-dihydro-[1,3,4]thiadiazolo[2′,3′:2,3]imidazo[4,5-c]pyridin-6(5H)-yl)-2-oxoethoxy)-N,N-dimethylpicolinamide]",6
16,"Cc1cnc(C2c3c(nc4sc(C)nn34)CCN2C(=O)COc2ccc(NS(C)(=O)=O)nc2Cl)c(F)c1 (stereo not drawn) [Example 1.31.8, N-(6-chloro-5-(2-(5-(3-fluoro-5-methylpyridin-2-yl)-2-methyl-7,8-dihydro-[1,3,4]thiadiazolo[2′,3′:2,3]imidazo[4,5-c]pyridin-6(5H)-yl)-2-oxoethoxy)pyridin-2-yl)methanesulfonamide]",9
17,"Cc1cnc(C2c3c(nc4sc(C)nn34)CCN2C(=O)COc2ccc(NS(=O)(=O)C3CC3)nc2Cl)c(F)c1 (stereo not drawn) [Example 1.31.9, N-(6-chloro-5-(2-(5-(3-fluoro-5-methylpyridin-2-yl)-2-methyl-7,8-dihydro-[1,3,4]thiadiazolo[2′,3′:2,3]imidazo[4,5-c]pyridin-6(5H)-yl)-2-oxoethoxy)pyridin-2-yl)cyclopropanesulfonamide]",21
18,"Cc1cnc(C2c3c(nc4sc(C)nn34)CCN2C(=O)COc2ccc(NS(C)(=O)=O)cc2Cl)c(F)c1 (stereo not drawn) [Example 1.31.10, N-(3-chloro-4-(2-(5-(3-fluoro-5-methylpyridin-2-yl)-2-methyl-7,8-dihydro-[1,3,4]thiadiazolo[2′,3′:2,3]imidazo[4,5-c]pyridin-6(5H)-yl)-2-oxoethoxy)phenyl)methanesulfonamide]",11
19,"COC1(C)CN(c2ccc(OCC(=O)N3CCc4nc5sc(C)nn5c4[C@@H]3c3ncc(C)cc3F)c(Cl)n2)C1 [Example 1.31.11, (R)-2-((2-chloro-6-(3-methoxy-3-methylazetidin-1-yl)pyridin-3-yl)oxy)-1-(5-(3-fluoro-5-methylpyridin-2-yl)-2-methyl-7,8-dihydro-[1,3,4]thiadiazolo[2′,3′:2,3]imidazo[4,5-c]pyridin-6(5H)-yl)ethanone]",23
20,"Cc1cnc([C@H]2c3c(nc4sc(C)nn34)CCN2C(=O)COc2ccc(C3(N(C)C)CC3)nc2Cl)c(F)c1 [Example 1.31.12, (R)-2-((2-chloro-6-(1-(dimethylamino)cyclopropyl)pyridin-3-yl)oxy)-1-(5-(3-fluoro-5-methylpyridin-2-yl)-2-methyl-7,8-dihydro-[1,3,4]thiadiazolo[2′,3′:2,3]imidazo[4,5-c]pyridin-6(5H)-yl)ethanone]",217
21,"Cc1cnc(C2c3c(nc4sc(C)nn34)CCN2C(=O)COc2ccc(-c3ncco3)nc2Cl)c(F)c1 (stereo not drawn) [Example 1.31.13, 2-((2-chloro-6-(oxazol-2-yl)pyridin-3-yl)oxy)-1-(5-(3-fluoro-5-methylpyridin-2-yl)-2-methyl-7,8-dihydro-[1,3,4]thiadiazolo[2′,3′:2,3]imidazo[4,5-c]pyridin-6(5H)-yl)ethanone]",16
22,"Cc1cnc(C2c3c(nc4sc(C)nn34)CCN2C(=O)COc2ccc(C(=O)N(C)C3CC3)nc2Cl)c(F)c1 (stereo not drawn) [Example 1.31.14, 6-chloro-N-cyclopropyl-5-(2-(5-(3-fluoro-5-methylpyridin-2-yl)-2-methyl-7,8-dihydro-[1,3,4]thiadiazolo[2′,3′:2,3]imidazo[4,5-c]pyridin-6(5H)-yl)-2-oxoethoxy)-N-methylpicolinamide]",32
23,"Cc1cnc([C@H]2c3c(nc4sc(C)nn34)CCN2C(=O)COc2ccc(N(C)S(C)(=O)=O)nc2Cl)c(F)c1 [Example 1.31.15, (R)-N-(6-chloro-5-(2-(5-(3-fluoro-5-methylpyridin-2-yl)-2-methyl-7,8-dihydro-[1,3,4]thiadiazolo[2′,3′:2,3]-imidazo[4,5-c]pyridin-6(5H)-yl)-2-oxoethoxy)pyridin-2-yl)-N-methylmethanesulfonamide]",9
24,"CCc1nc(NS(C)(=O)=O)ccc1OCC(=O)N1CCc2nc3sc(C)nn3c2[C@@H]1c1ncc(C)cc1F [Example 1.31.16, (R)-N-(6-ethyl-5-(2-(5-(3-fluoro-5-methylpyridin-2-yl)-2-methyl-7,8-dihydro-[1,3,4]thiadiazolo[2′,3′:2,3]imidazo[4,5-c]pyridin-6(5H)-yl)-2-oxoethoxy)pyridin-2-yl)methanesulfonamide]",18
